Reference: patent US8007526B2, “Difunctionalized aromatic compounds and polymers therefrom” (Bezwada Biomedical, LLC, priority 2005, dated 2011)

Assay: In vitro hydrolysis in Aldrich buffer at 100° C., monitored by TLC for disappearance of starting material
Type: physicochemical
From the text: In Vitro Hydrolysis of Functionalized Aromatics
A compound and a polymer of the present invention were examined for their rates of hydrolysis as described below.

Q: Which results are given for `COC(=O)COC(=O)COc1ccc(C(=O)OCC(=O)OC)cc1` [Example 14, 4-Methoxycarbonylmethoxycarbonylmethoxy-benzoic acid methoxycarbonyl methyl ester]?
A: Hydrolyzed in (time to hydrolysis) (100 mg in 10 mL Aldrich pH 7.4 buffer): Hydrolyzed in 26.5 hours; Hydrolyzed in (time to hydrolysis) (100 mg in 10 mL Aldrich pH 9 buffer, 1% solution): Hydrolyzed in 5 hours
